Assay results as given in patent publication US11014961B2, “Self-labeling miniproteins and conjugates comprising them” (priority 2017, dated 2021).
Residues, ends and D or L forms follow the SMILES beside them. No end group written: not given here. *: point of attachment. X1 = O=C(CCCC[C@@H]1SC[C@@H]2NC(=O)N[C@@H]21)NCCCC[C@H](NC(=O)CCOCCOCCOCCOCCOCCOCCOCCOCCOCCOCCOCCOCCSc1c(F)c(F)c(Sc2c(F)c(F)c(*)c(F)c2F)c(F)c1F)C(=O)O

Experiments:
[1] = Second order rate constant of the reaction between miniprotein (MP) and capture agent (CA), LC-MS TIC peak integration; assay type: biochemical; conditions: for Rate: Table 4, reaction rates of self-labeling miniprotein sequences; for Second order rate constant: 0.1 mM MP, 0.5 mM CA; for reactivity with the CA (in words): standard reaction conditions
[2] = Labeling conversion of MP with the selection capture agent (LC-MS TIC); assay type: biochemical; conditions: 0.5 mM CA, 0.1 mM MP, 5 mM TCEP, 1× selection buffer, pH 7.4
Procedure: All 10 putative self-labeling MPs were chemically synthesized (MP01 and MP02 were additionally made with the full C-terminal constant region). To determine the importance of the C-terminal tag, a kinetic analysis on MP01 was conducted comparing the sequence with and without the tag. […] The remainder of the MPs all reacted with varying second order rate constants and to differing product distributions from multiple cysteine labeling sites (Table 3). […] Of the sequences containing multiple cysteines, all reacted to differing extents. […] On the other hand, MP08 (SEQ ID NO: 53) reacted sluggishly (0.04 μM^−1 s^−1) to produce singly and doubly labeled species. The sole sequence containing three cysteines, MP05 (SEQ ID NO: 44), yielded a mixture of labeled species within an 8-hour reaction—primarily existing with either 2 or 3 labels with a rapid initial labeling process (0.93±0.11 μM^−1 s^−1). Finally, MP01, 07 and 10 (SEQ ID NOs: 13, 52, and 59, respectively) were probed via proteolytic digest-LC-MS/MS analysis, this confirmed that the cysteines were labeled and not an alternative amino acid. […] Conditions used were 0.5 mM CA, 0.1 mM MP, 5 mM TCEP, 1× selection buffer, pH 7.4.

[3] = Labeling conversion of MP with the modified capture agent (LC-MS TIC); assay type: biochemical; conditions: 0.5 mM mCA, 0.1 mM MP, 5 mM TCEP, 1× selection buffer, pH 7.4
Procedure: A solution consisting of 5 mM carboxy-(PEG)12-thiol, 500 mM pentafluorophenyl sulfide, 20 mM triphenylphosphine and 230 mM DIEA in acetonitrile was vortexed and left at room temperature for 4 hours. The reaction was then diluted with 10.6× volume of 95% A: 5% B, solid phase extracted and lyophilized. The resulting material was analyzed by LCMS (method 2). This product will later be referred to as mCA (modified CA).
All 10 putative self-labeling MPs were chemically synthesized (MP01 and MP02 were additionally made with the full C-terminal constant region). To determine the importance of the C-terminal tag, a kinetic analysis on MP01 was conducted comparing the sequence with and without the tag. […] The remainder of the MPs all reacted with varying second order rate constants and to differing product distributions from multiple cysteine labeling sites (Table 3). […] Of the sequences containing multiple cysteines, all reacted to differing extents. […] On the other hand, MP08 (SEQ ID NO: 53) reacted sluggishly (0.04 μM^−1 s^−1) to produce singly and doubly labeled species. The sole sequence containing three cysteines, MP05 (SEQ ID NO: 44), yielded a mixture of labeled species within an 8-hour reaction—primarily existing with either 2 or 3 labels with a rapid initial labeling process (0.93±0.11 μM^−1 s^−1). […]

proteinase K = molecular target: T1, proteinase K (Parengyodontium album, UniProt P06873); experiment: Protease digestion with proteinase K (LC-MS fraction remaining); assay type: in vitro ADME; conditions: 100 μM peptide
T1 construct: purchased Amresco
Procedure: Reactions were performed using 100 μM peptide with […] of proteinase K for general cleavage with the addition of 1 mM CA for C11A and C11S digestions. Reactions were quenched with 49.75% water, 49.75% ACN and 0.5% TFA at selection time point and analyzed by LCMS. TIC-based integrated peak areas were used to determine the amount of material in a given time point normalized to the starting amount. These normalized values there then concerted to fraction remaining and plotted as shown.

[4] = Thermal melting followed by circular dichroism at 222 nm; assay type: physicochemical; conditions: 50 μM peptide with 10×CA (500 μM), CD at 222 nm
Procedure: All experiments were performed at room temperature (˜23.5° C.) using a Jasco J-1500 spectrometer at MIT's Biophysical Instrumentation Facility (BIF). General conditions used were 10 mM sodium phosphate buffer at pH 7.45 with 5 mM TCEP (if a cysteine was present) with 50 μM peptide. CD measurements with C11S and C11A versions of Gen4 (SEQ ID NOs: 138 and 137, respectively) used the same conditions, without TCEP but with varying amount of CA (50 μM up to 500 μM depending on the desired mole ratio). Temperature melt data was obtained using a 0.5° C./minute ramp with data collected at 222 nm. […] For CD of Gen 1 (MP01; SEQ ID NO: 13), Gen1 H19L (MP01-H19L; SEQ ID NO: 62), Gen1 3 ala (MP01-T8/D10/S14A; SEQ ID NO: 69), Gen2 (MP01-Gen2; SEQ ID NO: 71) and Gen3_1 (MP01-Gen3_1; Gen 2-A17E; SEQ ID NO: 116) in their labeled and nonlabeled states, data was obtained in 12.5 mM HEPES, 50 mM NaCl, 2.5 mM MgCl2 and 2.5 mM CaCl2 at pH 7.45 with 5 mM TCEP at 50 µM peptide with or without ˜55 μM CA that had reacted for ˜2 days at room temperature. The CA labeled versions were not purified post reaction and were analyze in their reaction mixture.
Lacking an apparent cysteine pKa modulation, the basis for Gen4's high reactivity again came into question. Both C11A (SEQ ID NO: 134) and C11S (SEQ ID NO: 135) variants were synthesized and assayed them for CA-mediated structural alteration via CD. […]

[5] = 5 mM TCEP, 1× selection buffer pH 7.4, RT, a: average of three MP concentrations, c: labeled 1-3 times, d: labeled 1-2 times

T1 sequence (P06873 106-384): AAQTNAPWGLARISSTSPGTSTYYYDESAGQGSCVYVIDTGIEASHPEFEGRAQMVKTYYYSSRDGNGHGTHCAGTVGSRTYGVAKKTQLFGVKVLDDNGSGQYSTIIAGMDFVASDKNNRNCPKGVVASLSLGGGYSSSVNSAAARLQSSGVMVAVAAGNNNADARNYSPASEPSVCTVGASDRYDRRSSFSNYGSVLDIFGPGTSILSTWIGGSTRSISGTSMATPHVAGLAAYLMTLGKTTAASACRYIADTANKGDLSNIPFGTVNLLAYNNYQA

Compound	Rate [1] [M⁻¹ s⁻¹]	reactivity with the CA (in words) [1]	further results
MNGHYPCYLITSVLVGATTSGVPVVVHLRVG-NH2 [MP17]	0.11		
MHNAYLRKSMRQLCYFRRTLHNIHVMSHRG-NH2 [MP10]			rate enhancement over a non-selected Cys peptide [1]: ~529 ×; Second order rate constant [1, 5]: 1.66 ± 0.48^a M^−1 s^−1; conversion with selection CA [2]: 91%; conversion with modified CA (mCA) [3]: 96%
MKTFSSDQRFSKKCYRIYFHKLRQRNHNTSVG-NH2 [MP07]			Second order rate constant [1, 5]: 0.91 ± 0.14^a M^−1 s^−1
MNQKYKMAKACFFAFLAHLKKRKLYPMSG-NH2 [Gen3_2]		increased the rate of reaction	
MHMHKTTSYRIRVLVGVDVYRMSHTCLTSSSG-NH2 [MP19]	0.21		
MTSVTASLLMHFCPIRAHITNKPSFNPSG-NH2 [MP03]			Second order rate constant [1, 5]: 0.04 M⁻¹ s⁻¹
MHTSLRSRAKSHSRSFGKCASIYTRYLKMG-NH2 [MP20]	1.22		
MHAKYKMAKACFFAFLAHLKKRKLYPMSG-NH2 [Gen 2-Q3A]		no alteration	
KMTKDCFFSFL-NH2 [MP01-T, KMTKDCFFSFL]		severely diminished activity	Second order rate constant [1, 5]: 0.06 M⁻¹ s⁻¹
MSSGTHYGILNMVIRCHLVKNQTSQMVVLTTG-NH2 [MP14]	0.12		
MGHLHICMVWRVNTSGHILSVGHKSYSSHKTG-NH2 [MP13]	2.41		
MHQKYKMAKACFFAFLAHLAKRKLYPMSG-NH2 [Gen 2-K20A]		no alteration	
MHQKYKMTKDSFFSFLAHHKKRKLYPMSG-NH2 [SEQ ID NO: 91]		all reactivity was lost	
MRRTPSTRARGRVFLLPTLRFFITLCNLNG-NH2 [MP24]	0.02		
CSCC[C@H](NC(=O)[C@H](CCCCN)NC(=O)[C@H](Cc1ccc(O)cc1)NC(=O)[C@H](CCCCN)NC(=O)[C@H](CCC(N)=O)NC(=O)[C@H](CC(N)=O)NC(=O)[C@@H](N)CCSC)C(=O)N[C@@H](C)C(=O)N[C@@H](CCCCN)C(=O)N[C@@H](C)C(=O)N[C@@H](CSc1c(F)c(F)c(Sc2c(F)c(F)c(SCCOCCOCCOCCOCCOCCOCCOCCOCCOCCOCCOCCOCCC(=O)N[C@@H](CCCCNC(=O)CCCC[C@@H]3SC[C@@H]4NC(=O)N[C@@H]43)C(=O)O)c(F)c2F)c(F)c1F)C(=O)N[C@@H](Cc1ccccc1)C(=O)N[C@@H](Cc1ccccc1)C(=O)N[C@@H](C)C(=O)N[C@@H](Cc1ccccc1)C(=O)N[C@@H](CC(C)C)C(=O)N[C@@H](CCC(=O)O)C(=O)N[C@@H](Cc1c[nH]cn1)C(=O)N[C@@H](CC(C)C)C(=O)N[C@@H](CCCCN)C(=O)N[C@@H](CCCCN)C(=O)N[C@@H](CCCNC(=N)N)C(=O)N[C@@H](CCCCN)C(=O)N[C@@H](CC(C)C)C(=O)N[C@@H](Cc1ccc(O)cc1)C(=O)N1CCC[C@H]1C(=O)N[C@@H](CCSC)C(=O)N[C@@H](CO)C(=O)NCC(N)=O [Gen4-CA] (H-MNQKYKMAKAC(X1)FFAFLEHLKKRKLYPMSG-NH2)			protease stability (proteinase K): significantly increased protease resistance
MLFMRLTKKTMATKFCPFRRKRKHRERRALYG-NH2 [MP27]	0.61		
MPNYGPLSPSQPSHGYTFWMVPIWDNSHNAAG-NH2 [MP02]		did not react	Second order rate constant ([1]; footnote b: construct with the full length C-terminal region (-SGSLGHHHHHHRL)): No Reaction^b
MNRIFHKRSTYQMVFGRCSDFTSTYHVLISYG-NH2 [MP25]	0.25		
MNQKYKMAKASFFAFLEHLKKRKLYPMSG-NH2 [Gen4(C11S)]			thermal melting behaviour (in words) with CA [4]: gradually increasing CD signal albeit with a shift to higher temperatures; protease stability in presence of CA (noncovalent) (proteinase K; with 10×CA (1 mM CA)): improved protease stability
MRSTHQRVRRPRNLCSFKHKWLIKFLKTLTG-NH2 [MP22]	4.94		
